This is an account of results in US20250268980A1, “AN ANTICANCER THERAPY TARGETING RAS AND OTHER ONCOGENIC SIGNALS BY INHIBITION OF DYNAMIC BLEBBING AND/OR SEPTINS” (THE BOARD OF REGENTS OF THE UNIVERSITY OF TEXAS SYSTEM, priority 2022, published 2025).

This assay concerns cortical septin structures in MV3 cells. Description: Cortical septin localization (SEPT6-GFP) in MV3 cells. The format is cell-based, human. The settings on record: MV3 SEPT6-GFP; WGA (50 ug/ml), VitroGel, H1152 (1 μM), NSC668394 (10 μM). Here is the method:
Cells Embedded in 3D Collagen.
Cells Grown in VitroGel Coffins. VitroGel coffins were prepared by embedding MV3 or A375 cells in VitroGel 3D or RGD at 1:1 dilution according to manufacturer's instructions (TheWell Biosciences, sku #TWG001). […] A 1:1 solution of VitroGel and VitroGel Dilution Solution was made and added to cell suspension at a ratio of 4:1 (VitroGel: cells) using gentle pipetting until well-mixed (with care taken not to form bubbles). Cell/VitroGel solution was transferred to an 8-well uncoated ibidi μ-slide (ibidi cat #80821) at 100 μl/well, spread over the bottom of wells with a pipette tip, and allowed to polymerize at room temperature for 15 minutes. The remainder of the well was then filled with 10% FBS DMEM and slide was stored at 37° C. and 5% CO2 for either 24 hrs for viability assays, 3 hrs for ERK activity assays, or 1 hour for visualization of septins/PI3K activity.
3D Light-Sheet Imaging. […] All images were saved in the OME-TIFF format.
3D Cell Image Analysis. Cell morphology and septin localization were analyzed principally via u-shape3D similar to the protocol described in Driscoll et al. Nature Methods. 16, 1037-1044 (2019), the disclosure of which is incorporated herein in its entirety. Briefly, 3D images were first deconvolved using either a Richardson-Lucy or Wiener algorithm with an experimentally measured point spread function. […] Cell surfaces were then represented as triangle meshes, and the mean surface curvature at every triangle was calculated according to methods described in Driscoll et al. Nature Methods. […] Septin and NRAS localization was measured from fluorescence images by extending a sphere of either 1 μm (for septins) or 2 μm (for NRAS) about each mesh triangle and mapping to the triangle the average intensity both within that sphere and the cell. Image intensity was not depth normalized prior to analysis, but was instead measured from the raw, undeconvolved image. […]
Cortical septin levels were quantified by measuring the mean cytoplasmic intensity of each cell using hand-drawn ROIs that excluded nuclei (performed with the FIJI ImageJ package), and then calculating for each cell its fraction of cortical voxels (intracellular voxels within 0.96 μm of the u-Shape3D-derived surface) that were higher than that cell's mean cytoplasmic intensity (performed using a MATLAB script). NRAS enrichment at the surface was quantified by first calculating the total amount of intracellular signal expected to be within 0.96 μm of the surface if the cell's signal was homogenously distributed between all voxels, and then calculating the percent change between this value and the observed value for each cell. […]

For `Cc1cncc2cccc(S(=O)(=O)N3CCCNC[C@@H]3C)c12` [H1152], the “septin localization (cortical levels)” value is “pronounced effects on septin localization, reducing cortical levels”.
